Reference: ChEMBL document CHEMBL4602664, “Chrysosporazines F-M: P-Glycoprotein Inhibitory Phenylpropanoid Piperazines from an Australian Marine Fish Derived Fungus, Chrysosporium sp. CMB-F294” (J Nat Prod, 2020)

Key:
Staphylococcus aureus = test: Antibacterial activity against Staphylococcus aureus ATCC 25923 assessed as reduction in microbial growth after 24 hrs by spectrophotometric method; type: functional, organism-based; conditions: ATCC 25923, 24 h
Escherichia coli = test: Antibacterial activity against Escherichia coli ATCC 11775 assessed as reduction in microbial growth after 24 hrs by spectrophotometric method; type: functional, organism-based; conditions: ATCC 11775, 24 h
Candida albicans = test: Antifungal activity against Candida albicans ATCC 10231 assessed as reduction in microbial growth after 48 hrs by spectrophotometric method; type: functional, organism-based; conditions: ATCC 10231, 48 h
SW-620 = test: Antiproliferative activity against human SW620 cells assessed as reduction in cell viability after 48 hrs by MTT assay; type: functional, cell-based; conditions: SW-620, 48 h
SW620/AD300 = test: Antiproliferative activity against human SW620/AD300 cells assessed as reduction in cell viability after 48 hrs by MTT assay; type: functional, cell-based; conditions: SW620/AD300, 48 h

## COc1c2c(cc3c1[C@H](c1ccccc1)[C@H]1C(=O)N4C[C@H](Cc5ccccc5)N(C(C)=O)C[C@@H]4[C@@H]31)OCO2
Staphylococcus aureus
  IC50: > 30 µM
Escherichia coli
  IC50: > 30 µM
Candida albicans
  IC50: > 30 µM
SW-620
  IC50: > 30 µM

## COc1cc(C[C@H]2CN3C(=O)/C(=C/c4ccccc4)[C@H](c4cc(OC)c5c(c4)OCO5)[C@H]3CN2C(C)=O)cc2c1OCO2
Staphylococcus aureus
  IC50: > 30 µM
Escherichia coli
  IC50: > 30 µM
Candida albicans
  IC50: > 30 µM
SW-620
  IC50: > 30 µM

## COc1cc([C@H]2/C(=C\c3ccccc3)C(=O)N3C[C@H](Cc4ccccc4)N(C(C)=O)C[C@H]23)cc2c1OCO2
Staphylococcus aureus
  IC50: > 30 µM
Escherichia coli
  IC50: > 30 µM
Candida albicans
  IC50: > 30 µM
SW-620
  IC50: > 30 µM

## COc1cc(C[C@H]2CN3C[C@@H]4[C@@H](c5ccccc5)c5c(cc6c(c5OC)OCO6)[C@@H]4[C@H]3CN2C(C)=O)cc2c1OCO2
Staphylococcus aureus
  IC50: > 30 µM
Escherichia coli
  IC50: > 30 µM
Candida albicans
  IC50: > 30 µM
SW-620
  IC50: > 30 µM

## COc1cc([C@@H]2[C@H]3CN(C(C)=O)[C@@H](Cc4ccccc4)CN3C(=O)[C@@]23O[C@H]3c2ccccc2)cc2c1OCO2
Staphylococcus aureus
  IC50: > 30 µM
Escherichia coli
  IC50: > 30 µM
Candida albicans
  IC50: > 30 µM
SW-620
  IC50: > 30 µM

## COc1c2c(cc3c1[C@H](c1ccccc1)[C@@]1(O)C(=O)N4C[C@H](Cc5ccccc5)N(C(C)=O)C[C@@H]4[C@@H]31)OCO2
Staphylococcus aureus
  IC50: > 30 µM
Escherichia coli
  IC50: > 30 µM
Candida albicans
  IC50: > 30 µM
SW-620
  IC50: > 30 µM

## COc1cc(C[C@H]2CN3C(=O)[C@@]4(O[C@H]4c4ccccc4)[C@H](c4cc(OC)c5c(c4)OCO5)[C@H]3CN2C(C)=O)cc2c1OCO2
Staphylococcus aureus
  IC50: > 30 µM
Escherichia coli
  IC50: > 30 µM
Candida albicans
  IC50: > 30 µM
SW-620
  IC50: > 30 µM

## COc1cc(C[C@H]2CN3C[C@]4(O)[C@@H](c5ccccc5)c5c(cc6c(c5OC)OCO6)[C@@H]4[C@H]3CN2C(C)=O)cc2c1OCO2
Staphylococcus aureus
  IC50: > 30 µM
Escherichia coli
  IC50: > 30 µM
Candida albicans
  IC50: > 30 µM
SW-620
  IC50: > 30 µM

## COc1ccc(CCN(C)CCCC(C#N)(c2ccc(OC)c(OC)c2)C(C)C)cc1OC (stereo not given)
SW620/AD300
  IC50: > 30 µM

## COc1cccc2c1C(=O)c1c(O)c3c(c(O)c1C2=O)C[C@@](O)(C(=O)CO)C[C@@H]3O[C@H]1C[C@H](N)[C@H](O)[C@H](C)O1 [DOXORUBICIN]
SW-620
  IC50: 0.11 µM
SW620/AD300
  IC50: 4.9 µM
